Results: US10781204B2, “TYK2 inhibitors and uses thereof” (Nimbus Lakshmi, Inc., priority 2015, dated 2020)

How the values were obtained:
JAK2 = JAK2 (Homo sapiens (Human), UniProt O60674); assay: JAK2 radioactive kinase assay; format: biochemical; details: ATP 10 μM
In short: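 Radiometric assay in Hepes pH 7.5, MgCl2, EGTA, Brij35, BSA, DTT, 1% DMSO, with 10 μM [33P]ATP, 120 min at room temp; P81 paper capture and counting. […]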

TYK2 = TYK2 (Homo sapiens (Human), UniProt P29597); assay: Tyk2 radioactive kinase assay; format: biochemical; details: ATP 10 μM
Chain of TYK2 (P29597 whole entry): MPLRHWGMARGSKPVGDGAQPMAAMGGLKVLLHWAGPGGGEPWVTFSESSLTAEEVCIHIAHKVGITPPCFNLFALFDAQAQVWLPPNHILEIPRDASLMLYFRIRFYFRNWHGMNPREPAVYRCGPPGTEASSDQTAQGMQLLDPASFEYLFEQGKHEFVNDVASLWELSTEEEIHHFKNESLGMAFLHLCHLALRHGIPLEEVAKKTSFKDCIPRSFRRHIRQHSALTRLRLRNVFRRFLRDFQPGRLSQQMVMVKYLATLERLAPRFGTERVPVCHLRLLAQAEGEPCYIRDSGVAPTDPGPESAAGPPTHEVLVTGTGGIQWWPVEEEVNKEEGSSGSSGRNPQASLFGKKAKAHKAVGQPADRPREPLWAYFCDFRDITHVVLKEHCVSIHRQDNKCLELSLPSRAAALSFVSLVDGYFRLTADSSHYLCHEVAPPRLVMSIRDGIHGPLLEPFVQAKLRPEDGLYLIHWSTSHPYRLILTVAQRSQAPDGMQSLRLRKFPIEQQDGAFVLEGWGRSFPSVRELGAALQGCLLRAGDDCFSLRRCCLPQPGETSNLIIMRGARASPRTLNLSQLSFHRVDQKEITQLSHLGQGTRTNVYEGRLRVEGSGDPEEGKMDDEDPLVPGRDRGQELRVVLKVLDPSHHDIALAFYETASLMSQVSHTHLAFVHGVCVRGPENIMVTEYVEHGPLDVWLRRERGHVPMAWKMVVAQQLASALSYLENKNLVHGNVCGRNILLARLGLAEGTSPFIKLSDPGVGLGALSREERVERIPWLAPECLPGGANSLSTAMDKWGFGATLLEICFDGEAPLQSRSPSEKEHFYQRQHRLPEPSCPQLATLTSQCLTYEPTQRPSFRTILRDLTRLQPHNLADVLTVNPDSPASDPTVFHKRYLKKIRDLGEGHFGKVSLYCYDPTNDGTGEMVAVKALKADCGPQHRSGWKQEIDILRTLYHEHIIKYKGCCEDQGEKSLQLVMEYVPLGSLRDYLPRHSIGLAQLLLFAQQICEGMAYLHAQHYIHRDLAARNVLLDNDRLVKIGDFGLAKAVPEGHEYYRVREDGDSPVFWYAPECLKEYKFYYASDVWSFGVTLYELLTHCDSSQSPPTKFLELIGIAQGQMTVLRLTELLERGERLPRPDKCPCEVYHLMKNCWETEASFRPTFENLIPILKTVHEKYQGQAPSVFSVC
In short: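 Recombinant human TYK2 (Invitrogen) was mixed with 20 μM peptide substrate in a buffer of 20 mM Hepes pH 7.5, 10 mM MgCl2, 1 mM EGTA, 0.02% Brij35, 0.02 mg/mL BSA, 0.1 mM […], 2 mM DTT and 1% DMSO, and compounds in DMSO were added. Adding ^33P-ATP (10 μM ATP) started the reaction, which ran 120 min at room temperature. Mixtures were then spotted onto P81 ion-exchange paper, washed thoroughly in 0.75% phosphoric acid, and counted for radioactivity.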

[1] = test system: JAK2-pSTAT5 (GM-CSF induced pSTAT5); assay: GM-CSF induced pSTAT5 in human PBMC; format: cell-based; details: 5 ng/mL GM-CSF
In short: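 Thawed human PBMC, 200,000 per well in serum-containing medium, were preincubated 1 hr at 37 C with compound in 0.1% DMSO. GM-CSF at 5 ng/mL final was added for 20 minutes, then pSTAT5 and total STAT5 in lysates were measured by MSD immunoassay.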

[2] = test system: Tyk2-pSTAT4 (IL-12 induced pSTAT4); assay: IL-12 induced pSTAT4 in human PBMC; format: cell-based; details: 1.7 ng/mL IL-12, 30 minutes
In short: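 pSTAT4 and total STAT4 quantified by MSD in cell lysates after 30 minutes of 1.7 ng/mL IL-12 stimulation. Beforehand, compound (0.1% DMSO final) sat 1 hr at 37 C on 200,000 thawed buffy-coat PBMC per well in serum-containing medium.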

Chain of JAK2 (O60674 whole entry): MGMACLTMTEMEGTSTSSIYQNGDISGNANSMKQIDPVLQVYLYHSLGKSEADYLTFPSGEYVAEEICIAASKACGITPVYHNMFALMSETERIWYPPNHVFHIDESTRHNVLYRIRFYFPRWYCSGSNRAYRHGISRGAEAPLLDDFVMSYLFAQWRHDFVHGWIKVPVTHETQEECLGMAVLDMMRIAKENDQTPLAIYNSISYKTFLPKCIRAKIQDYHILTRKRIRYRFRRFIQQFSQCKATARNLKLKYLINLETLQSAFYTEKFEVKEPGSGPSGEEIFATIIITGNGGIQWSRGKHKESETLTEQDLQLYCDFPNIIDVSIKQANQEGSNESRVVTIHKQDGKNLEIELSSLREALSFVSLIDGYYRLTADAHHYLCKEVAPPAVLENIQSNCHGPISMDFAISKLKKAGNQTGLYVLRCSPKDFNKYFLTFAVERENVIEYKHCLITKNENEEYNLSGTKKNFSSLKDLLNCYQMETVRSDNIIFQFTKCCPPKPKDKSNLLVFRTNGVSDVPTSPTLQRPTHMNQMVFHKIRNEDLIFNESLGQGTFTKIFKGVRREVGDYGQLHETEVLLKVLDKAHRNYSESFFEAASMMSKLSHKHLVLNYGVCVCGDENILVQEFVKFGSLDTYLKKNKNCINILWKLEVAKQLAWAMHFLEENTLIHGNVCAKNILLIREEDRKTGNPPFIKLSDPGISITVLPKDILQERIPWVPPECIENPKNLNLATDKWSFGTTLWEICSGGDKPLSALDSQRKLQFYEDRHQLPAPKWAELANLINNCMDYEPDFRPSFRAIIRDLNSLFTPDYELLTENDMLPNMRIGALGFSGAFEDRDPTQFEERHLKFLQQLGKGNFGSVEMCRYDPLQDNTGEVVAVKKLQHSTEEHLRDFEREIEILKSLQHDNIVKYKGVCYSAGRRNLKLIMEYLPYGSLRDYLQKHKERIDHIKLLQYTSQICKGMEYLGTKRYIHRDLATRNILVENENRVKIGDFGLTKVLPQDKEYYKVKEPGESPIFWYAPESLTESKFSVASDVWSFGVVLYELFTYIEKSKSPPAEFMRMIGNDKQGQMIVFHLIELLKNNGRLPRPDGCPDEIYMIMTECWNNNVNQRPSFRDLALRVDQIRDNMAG

Row | SMILES | Ki (JAK2) | Ki (TYK2) | EC50 ([1]; Homo sapiens, PBMC, 20 min) | EC50 ([2]; Homo sapiens, PBMC, 0.5 h) | EC50 ([1]; 20 minutes) | EC50 ([1]; 20 min) | EC50 ([2]; 0.5 h) | EC50 [2]
1 | [2H]C1([2H])N(c2ccn(-c3cc(-c4c(F)cccc4C#N)nc4c3C(=O)NC4)n2)C([2H])([2H])C([2H])([2H])C([2H])(O)C1([2H])[2H] [I-203, 3-fluoro-2-(4-(3-(4-hydroxypiperidin-1-yl-2,2,3,3,4,5,5,6,6-d9)-1H-pyrazol-1-yl)-5-oxo-6,7-dihydro-5H-pyrrolo[3,4-b]pyridin-2-yl)benzonitrile] | 10 to 100 nM | 0.1 to 10 nM | 100 to 2000 nM | 30 to 100 nM |  |  |  | 
2 | CCNC(=O)C1CCCN(c2ccn(-c3cc(-c4c(F)cccc4C#N)nc4c3C(=O)NC4)n2)C1 (stereo not drawn) [I-159, 1-(1-(2-(2-cyano-6-fluorophenyl)-5-oxo-6,7-dihydro-5H-pyrrolo[3,4-b]pyridin-4-yl)-1H-pyrazol-3-yl)-N-ethylpiperidine-3-carboxamide] | 10 to 100 nM | 0.1 to 10 nM | > 2000 nM | 100 to 2000 nM |  |  |  | 
3 | CCNC(=O)[C@@H]1CCCN(c2ccn(-c3cc(-c4c(F)cccc4C#N)nc4c3C(=O)NC4)n2)C1 [I-172, (R)-1-(1-(2-(2-cyano-6-fluorophenyl)-5-oxo-6,7-dihydro-5H-pyrrolo[3,4-b]pyridin-4-yl)-1H-pyrazol-3-yl)-N-ethylpiperidine-3-carboxamide] | 10 to 100 nM | 0.1 to 10 nM | > 2000 nM | 100 to 2000 nM |  |  |  | 
4 | CC1=C(c2ccn(-c3cc(-c4c(F)cccc4C#N)nc4c3C(=O)NC4)n2)CNC1=O [I-227, 3-fluoro-2-(4-(3-(4-methyl-5-oxo-2,5-dihydro-1H-pyrrol-3-yl)-1H-pyrazol-1-yl)-5-oxo-6,7-dihydro-5H-pyrrolo[3,4-b]pyridin-2-yl)benzonitrile] | 10 to 100 nM | 0.1 to 10 nM | 100 to 2000 nM | 100 to 2000 nM |  |  |  | 
5 | CO[C@@H]1CCN(c2ccn(-c3cc(-c4c(F)cccc4C#N)nc4c3C(=O)NC4)n2)C[C@H]1O [I-193, 3-fluoro-2-(4-(3-((3R,4R)-3-hydroxy-4-methoxypiperidin-1-yl)-1H-pyrazol-1-yl)-5-oxo-6,7-dihydro-5H-pyrrolo[3,4-b]pyridin-2-yl)benzonitrile] | 0.1 to 10 nM | 0.1 to 10 nM | > 2000 nM | 100 to 2000 nM |  |  |  | 
6 | N#Cc1cccc(F)c1-c1cc(-n2ccc(N3CCCC(C(=O)N4CCCC4)C3)n2)c2c(n1)CNC2=O (stereo not drawn) [I-152, 3-fluoro-2-(5-oxo-4-(3-(3-(pyrrolidine-1-carbonyl)piperidin-1-yl)-1H-pyrazol-1-yl)-6,7-dihydro-5H-pyrrolo[3,4-b]pyridin-2-yl)benzonitrile] | 0.1 to 10 nM | 0.1 to 10 nM | > 2000 nM | 100 to 2000 nM |  |  |  | 
7 | CO[C@@H]1CCN(c2ccn(-c3cc(-c4c(F)cccc4C#N)nc4c3C(=O)NC4)n2)C[C@]1(C)O [I-213, 3-fluoro-2-(4-(3-((3S,4R)-3-hydroxy-4-methoxy-3-methylpiperidin-1-yl)-1H-pyrazol-1-yl)-5-oxo-6,7-dihydro-5H-pyrrolo[3,4-b]pyridin-2-yl)benzonitrile] | 10 to 100 nM | 0.009 to 0.1 nM |  | 100 to 2000 nM | > 2000 nM |  |  | 
8 | N#Cc1cccc(F)c1-c1cc(-n2ccc(N3CCCC(C(N)=O)C3)n2)c2c(n1)CNC2=O (stereo not drawn) [I-122, 1-(1-(2-(2-cyano-6-fluorophenyl)-5-oxo-6,7-dihydro-5H-pyrrolo[3,4-b]pyridin-4-yl)-1H-pyrazol-3-yl)piperidine-3-carboxamide] | 10 to 100 nM | 0.1 to 10 nM | 100 to 2000 nM | 100 to 2000 nM |  |  |  | 
9 | N#Cc1cccc(F)c1-c1cc(-n2ccc([C@@H]3CCCO3)n2)c2c(n1)CNC2=O [I-104, (S)-3-fluoro-2-(5-oxo-4-(3-(tetrahydrofuran-2-yl)-1H-pyrazol-1-yl)-6,7-dihydro-5H-pyrrolo[3,4-b]pyridin-2-yl)benzonitrile] | 100 to 1000 nM | 0.1 to 10 nM | 100 to 2000 nM | 100 to 2000 nM |  |  |  | 
10 | N#Cc1cccc(F)c1-c1cc(-n2ccc(N3CC[C@H](O)C3)n2)c2c(n1)CNC2=O [I-79, (S)-3-fluoro-2-(4-(3-(3-hydroxypyrrolidin-1-yl)-1H-pyrazol-1-yl)-5-oxo-6,7-dihydro-5H-pyrrolo[3,4-b]pyridin-2-yl)benzonitrile] | 10 to 100 nM | 0.1 to 10 nM | 100 to 2000 nM | 30 to 100 nM |  |  |  | 
11 | N#Cc1cccc(F)c1-c1cc(-n2ccc(NCCN3CCOCC3)n2)c2c(n1)CNC2=O [I-63, 3-fluoro-2-(4-(3-((2-morpholinoethyl)amino)-1H-pyrazol-1-yl)-5-oxo-6,7-dihydro-5H-pyrrolo[3,4-b]pyridin-2-yl)benzonitrile] | 10 to 100 nM | 0.1 to 10 nM |  |  |  | 100 to 2000 nM | 100 to 2000 nM | 
12 | N#Cc1cccc(F)c1-c1cc(-n2ccc(N3CCC[C@@](O)(C(F)(F)F)C3)n2)c2c(n1)CNC2=O [I-89, (S)-3-fluoro-2-(4-(3-(3-hydroxy-3-(trifluoromethyl)piperidin-1-yl)-1H-pyrazol-1-yl)-5-oxo-6,7-dihydro-5H-pyrrolo[3,4-b]pyridin-2-yl)benzonitrile] | 10 to 100 nM | 0.1 to 10 nM | > 2000 nM | 100 to 2000 nM |  |  |  | 
13 | N#Cc1cccc(F)c1-c1cc(-n2ccc(N3CC[C@@H](O)[C@@H](N4CCOCC4)C3)n2)c2c(n1)CNC2=O [I-218, 3-fluoro-2-(4-(3-((3S,4R)-4-hydroxy-3-morpholinopiperidin-1-yl)-1H-pyrazol-1-yl)-5-oxo-6,7-dihydro-5H-pyrrolo[3,4-b]pyridin-2-yl)benzonitrile] | 10 to 100 nM | 0.1 to 10 nM | 100 to 2000 nM | 100 to 2000 nM |  |  |  | 
14 | N#Cc1cccc(F)c1-c1cc(-n2cc3c(n2)CNC3)c2c(n1)CNC2=O [I-124, 2-(4-(5,6-dihydropyrrolo[3,4-c]pyrazol-2 (4H)-yl)-5-oxo-6,7-dihydro-5H-pyrrolo[3,4-b]pyridin-2-yl)-3-fluorobenzonitrile] | 100 to 1000 nM | 10 to 100 nM | > 2000 nM | > 2000 nM |  |  |  | 
15 | N#Cc1cccc(F)c1-c1cc(-n2ccc(N3CC[C@@H](O)[C@@H](O)C3)n2)c2c(n1)CNC2=O [I-137, 2-(4-(3-((3S,4R)-3,4-dihydroxypiperidin-1-yl)-1H-pyrazol-1-yl)-5-oxo-6,7-dihydro-5H-pyrrolo[3,4-b]pyridin-2-yl)-3-fluorobenzonitrile] | 0.1 to 10 nM | 0.1 to 10 nM | > 2000 nM |  |  |  |  | 100 to 2000 nM
16 | N#Cc1cccc(F)c1-c1cc(-n2ccc(N3CCCOCC3)n2)c2c(n1)CNC2=O [I-83, 2-(4-(3-(1,4-oxazepan-4-yl)-1H-pyrazol-1-yl)-5-oxo-6,7-dihydro-5H-pyrrolo[3,4-b]pyridin-2-yl)-3-fluorobenzonitrile] | 10 to 100 nM | 0.1 to 10 nM | > 2000 nM | 100 to 2000 nM |  |  |  | 
17 | N#Cc1cccc(F)c1-c1cc(-n2ccc(N3CCCC3=O)n2)c2c(n1)CNC2=O [I-139, 3-fluoro-2-(5-oxo-4-(3-(2-oxopyrrolidin-1-yl)-1H-pyrazol-1-yl)-6,7-dihydro-5H-pyrrolo[3,4-b]pyridin-2-yl)benzonitrile] | 10 to 100 nM | 0.1 to 10 nM | 100 to 2000 nM | 100 to 2000 nM |  |  |  | 
18 | CC(C)c1ccn(-c2cc(-c3c(F)cccc3C#N)nc3c2C(=O)NC3)n1 [I-151, 3-fluoro-2-(4-(3-isopropyl-1H-pyrazol-1-yl)-5-oxo-6,7-dihydro-5H-pyrrolo[3,4-b]pyridin-2-yl)benzonitrile] | 100 to 1000 nM | 0.1 to 10 nM | > 2000 nM | 100 to 2000 nM |  |  |  | 
19 | N#Cc1cccc(F)c1-c1cc(-n2ccc(N3CC[C@H](O)[C@H](O)C3)n2)c2c(n1)CNC2=O [I-136, 2-(4-(3-((3R,4S)-3,4-dihydroxypiperidin-1-yl)-1H-pyrazol-1-yl)-5-oxo-6,7-dihydro-5H-pyrrolo[3,4-b]pyridin-2-yl)-3-fluorobenzonitrile] | 0.1 to 10 nM | 0.009 to 0.1 nM | > 2000 nM | 30 to 100 nM |  |  |  | 
20 | N#Cc1cccc(F)c1-c1cc(-n2ccc(N3CCC(O)C3)n2)c2c(n1)CNC2=O (stereo not drawn) [I-76, 3-fluoro-2-(4-(3-(3-hydroxypyrrolidin-1-yl)-1H-pyrazol-1-yl)-5-oxo-6,7-dihydro-5H-pyrrolo[3,4-b]pyridin-2-yl)benzonitrile] | 0.1 to 10 nM | 0.009 to 0.1 nM | 100 to 2000 nM | 30 to 100 nM |  |  |  | 
21 | [2H]C([2H])([2H])C1(O)C([2H])([2H])N(c2ccn(-c3cc(-c4c(F)cccc4C#N)nc4c3C(=O)NC4)n2)C([2H])([2H])C1([2H])[2H] (stereo not drawn) [I-196, 3-fluoro-2-(4-(3-(3-hydroxy-3-(methyl-d3)pyrrolidin-1-yl-2,2,4,4,5,5-d6)-1H-pyrazol-1-yl)-5-oxo-6,7-dihydro-5H-pyrrolo[3,4-b]pyridin-2-yl)benzonitrile] | 0.1 to 10 nM | 0.1 to 10 nM | 100 to 2000 nM | 30 to 100 nM |  |  |  | 
